Experimental data: article PMC7281206, “Cysteine Cathepsins Inhibition Affects Their Expression and Human Renal Cancer Cell Phenotype” (Cancers, 2020)
*: point of attachment. CH2F = FC*

Assays:
Type in all cases: cell-based, human
[1] = system: A498 cells (endolysosomal compartment); experiment: Neutral red assay (endolysosomal integrity), A498; details: 2.5–250 μM; 48 h
Procedure: (§1) Figure S6. The effect of the peptide inhibitors on human 769‐P and A498 renal cancer cell on
(§2) lysosomes integrity. (a) 769‐P and (b) A498 cells were treated with increasing doses of Ac‐PLVE‐FMK
(§3) (red bars) and Ac‐VLPE‐FMK (blue bars) (2.5–250 μM). NR uptake was measured after 24, 48, and 72
(§4) h via MTT assay. (c) LysoTracker red evaluation in 769‐P and (d) A498 cells after 24, 48, and 72 h with
(§5) the inhibitors (20 μM). Data represent the mean (± S.D.) of at least three independent experiments,
each performed in triplicate.

[2] = system: A498 cells (endolysosomal compartment); experiment: LysoTracker red fluorescence, A498; details: 20 μM; 48 h; 75 nM LysoTracker red, 1 h, Ex/Em 570/600
Procedure: First, 1.5 × 10^4 769-P or A498 cells were seeded in 96-well plates in full medium. The day after the cells were treated with the peptides for 3 consecutive days to establish 24, 48, and 72 h groups of treatment. LysoTracker Red fluorescence intensity was measured via microplate reader following the protocols described in [75] and applying Ex/Em = 570/600. The cells were incubated with 75 nM of LysoTracker red for 1 h. […]
as §1, §2, §3, §4, §5
each performed in triplicate. […]

[3] = system: A498 cells (proteolytic activity); experiment: Cell proteolytic activity towards Ac-PLVQ-AMC, A498; details: 30 min peptide, then 10 min Ac-PLVQ-AMC; fluorescence microscopy and fluorimetric analysis
Procedure: To evaluate the inhibitory properties of the peptides directly on the human renal cancer cells, we firstly assessed the impact of Ac-PLVE-FMK and Ac-VLPE-FMK on the cell viability of 769-P and A498 cells to determine the working concentrations for further experiments. […] Further experiments were performed using a concentration of 20 μM. To understand if the peptides could affect the activity of caspase proteases, we tested their effect on cell viability in combination with the chemotherapeutic paclitaxel (PXT) in both the cell lines. […] Next, we evaluated the effect of the peptides on renal cancer cell proteolytic activity against the fluorogenic probe Ac-PLVQ-AMC. In this case, 769-p and A498 cells were treated for 30 min with Ac-PLVE-FMK or Ac-VLPE-FMK and were then exposed for 10 min to the substrate Ac-PLVQ-AMC prior fluorescence microscopy analysis (Figure 3c,d).
Figure 3 The effect of the peptide inhibitors on human 769-P and A498 renal cancer cell proliferation and proteolytic activity. […] Cell proliferation was measured after 24, 48, and 72 h via MTT (3-(4,5-dimethylthiazol-2-yl)-2,5-diphenyltetrazolium bromide) assay. […] (c) Fluorescence microscopy evaluation and quantification of the cell proteolytic activity in 769-P and (d) A498 cells towards the fluorogenic substrate Ac-PLVQ-AMC in the absence or presence of Ac-PLVE-FMK and Ac-VLPE-FMK. […]

769-P cells = experiment: Cell viability/proliferation (MTT), 769-P; details: 2.5–250 μM; for Cell viability: 72 h; for Effect on cell proliferation: within 48 h
Procedure: Figure 3 The effect of the peptide inhibitors on human 769-P and A498 renal cancer cell proliferation and proteolytic activity. (a) 769-P and (b) A498 cells were treated with increasing doses of Ac-PLVE-FMK (red bars) and Ac-VLPE-FMK (blue bars) (2.5–250 μM). Cell proliferation was measured after 24, 48, and 72 h via MTT (3-(4,5-dimethylthiazol-2-yl)-2,5-diphenyltetrazolium bromide) assay. Data represent the mean (±S.D.) of at least three independent experiments, each performed in triplicate. (c) Fluorescence microscopy evaluation and quantification of the cell proteolytic activity in 769-P and (d) A498 cells towards the fluorogenic substrate Ac-PLVQ-AMC in the absence or presence of Ac-PLVE-FMK and Ac-VLPE-FMK. The cells were seeded in a 96-well plate and after exposure to the peptides for 30 min prior incubation with the fluorescent substrate Ac-PLVQ-AMC for 10 min. Data are expressed as mean (±S.D.), and significance was calculated through one-way ANOVA followed by Dunnet’s test. * = p < 0.05, ** = p < 0.01, *** = p < 0.001.
The human renal cancer cell line lines […], A498 were obtained from Dr. Vadim Pokrovsky (purchased from American Type Culture Collection). The cells were cultured in RPMI 1640, supplemented with 10% fetal bovine serum and 1% mixture of antibiotics penicillin-streptomycin (all from Gibco, Waltham, MA, USA) at 5% CO2 and 37 °C in a humidified chamber. Cells were grown to confluence and harvested by trypsinization, using a 0.25 mg/mL trypsin/EDTA solution (ThermoFisher, Carlsbad, CA, USA) and resuspended in the fresh culture medium. Viable cells were enumerated on the Countess II FL Automated Cell Counter (ThermoFisher, Waltham, MA, USA), following Trypan Blue staining. The cell lines were tested for mycoplasma contamination regularly, using the Molecular Probes™ MycoFluor Mycoplasma Detection Kit (ThermoFisher, Waltham, MA, USA).
The cell number was evaluated by counting viable cells using the MTT (3-(4,5-dimethylthiazol-2-yl)-2,5-diphenyltetrazolium bromide) colorimetric assay. A total of 2 × 10^4 cells/well were seeded on independent 96-well plates for each time point (0, 24, 48, and 72 h), with five replicates and treated with two inhibitors (2.5–250 μM). Then, 10 µL of the MTT reagent was added to each well, and cells were incubated for another 5 h. Next, the absorbance value was measured using a CLARIOstar® Plus plate reader (BMG Labtech, Ortenberg, Germany) at 490 nm. Triplicate wells were assayed, and S.D.s were determined.

| Substance | Neutral red uptake [1] | LysoTracker red fluorescence [2] | Inhibition of probe degradation (cell proteolytic activity) [3] | Cell viability (769-P cells) | Effect on cell proliferation (769-P cells) |
| --- | --- | --- | --- | --- | --- |
| Ac-VLPE-CH2F [Ac-VLPE-FMK] | decreasing | decreasing | significantly inhibited the probe degradation | cell viability increased, reaching values not significantly different from the control cells | cytostatic properties on both cell lines only within 48 h of treatment |
| Ac-PLVE-CH2F [Ac-PLVE-FMK] | decreasing | decreasing | significantly inhibited the probe degradation | cell viability increased, reaching values not significantly different from the control cells | cytostatic properties on both cell lines only within 48 h of treatment |
